From patent US10555987B2, “GHRH agonists for the treatment of ischemic disorders” (UNIVERSITY OF MIAMI, priority 2012, dated 2020)
Marks after values point to notes of the source that are not given here. Non-standard residues stand in square brackets, D forms with d. Residues, ends and D or L forms follow the SMILES beside them. *: point of attachment. NMeY = CN[C@@H](Cc1ccc(O)cc1)C(=O)O; Agmatine = N=C(N)NCCCCN*; Nle = CCCC[C@H](N)C(=O)O; Orn = NCCC[C@H](N)C(=O)O; Abu = CC[C@H](N)C(=O)O

Assays:
[1] = test system: myocardial infarction (Fisher-344 rats); experiment: Hemodynamic analysis (pressure-volume loops), body and heart weight after MI, compared to JI-38 (Example 15, Table 16); format: in vivo, rat; design: key to ESP (End-Systolic Pressure) / EDP (End-Diastolic Pressure) / ESV (End-Systolic Volume) / PRSW (Preload Recruitable Stroke Work) / Ees (End-systolic Elastance) / dP/dt max (peak rate of the pressure rise) / dP/dt max_EDV / dP/dt min / TAU (relaxation time constant calculated by Weiss method) / SV (Stroke Volume) / CO (Cardiac Output) / SW (Stroke Work) / EF / Ea/Ees / Ea (arterial Elastance): ↓: downward arrow denotes lower than JI-38; ↑: upward arrow denotes greater than JI-38; =denotes same as JI-38; ⬇⬇: double arrow denotes greater effect; ⬆⬆: double arrow denotes greater effect; conditions: for CO (Cardiac Output) / EDP (End-Diastolic Pressure) / EF / ESP (End-Systolic Pressure) / ESV (End-Systolic Volume) / Ea (arterial Elastance) / Ea/Ees / Ees (End-systolic Elastance) / PRSW (Preload Recruitable Stroke Work) / SV (Stroke Volume) / SW (Stroke Work) / TAU (relaxation time constant calculated by Weiss method) / dP/dt max (peak rate of the pressure rise) / dP/dt max_EDV / dP/dt min: rat MI model, s.c. twice daily, pressure-volume loops, expressed in comparison to JI-38
Method in brief: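 Female 6-month-old Fisher-344 rats after permanent left coronary ligation received GHRH agonists subcutaneously twice daily from 2 h post-surgery (n=10/group). Under ketamine/xylazine/acepromazine anesthesia, LV pressure-volume loops were recorded via carotid micromanometer catheter, calibrated by hypertonic saline bolus and cuvette method; echocardiography also serial.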

GH release [2] = experiment: GH releasing potency in vivo, subcutaneous administration (Example 14, Table 12); design: species or system rat; conditions: s.c.; for Serum GH level at selected time after injection (ng/ml), 0 min / Serum GH level at selected time after injection (ng/ml), 15 min / Serum GH level at selected time after injection (ng/ml), 30 min: male rats, dose 3 μg/kg, mean ± SEM
Method in brief: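 Potency is expressed relative to GHRH(1-29)NH2 and JI-38 (each = 1), via equivalent GHRH(1-29)NH2 dose read from a standard curve. Peptides in 5% mannitol given i.v. or s.c. to anaesthetised male Sprague-Dawley rats (200-250 g); serum GH measured by ELISA at selected times.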

GHRH receptor = target: T1, GHRH receptor (Homo sapiens, UniProt Q02643); experiment: GHRH receptor binding, competition with 125I-labeled JV-1-42, human pituitary membrane homogenates (Table 7); design: Normal human pituitaries were purchased from the National Hormone and Peptide Program; tissue National Hormone and Peptide Program (A.F. Parlow, Harbor-UCLA Medical Center, Torrance, Calif.); host or cells: normal human pituitary, membrane fraction; conditions: JI-38 = 1, Table 7
T1 sequence (Q02643 23-423): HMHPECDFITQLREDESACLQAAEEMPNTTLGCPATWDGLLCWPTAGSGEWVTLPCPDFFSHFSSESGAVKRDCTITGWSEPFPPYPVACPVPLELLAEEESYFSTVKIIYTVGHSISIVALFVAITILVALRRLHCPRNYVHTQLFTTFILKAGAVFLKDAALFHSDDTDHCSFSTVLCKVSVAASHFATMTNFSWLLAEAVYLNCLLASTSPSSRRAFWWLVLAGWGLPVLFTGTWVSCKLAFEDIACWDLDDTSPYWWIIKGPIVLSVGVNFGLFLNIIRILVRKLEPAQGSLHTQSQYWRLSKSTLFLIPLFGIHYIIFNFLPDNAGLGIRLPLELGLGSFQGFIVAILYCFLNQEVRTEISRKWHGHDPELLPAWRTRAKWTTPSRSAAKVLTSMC
Source text: Normal human pituitaries were purchased from the National Hormone and Peptide Program (A.F. Parlow, Los Angeles, County Harbor-UCLA Medical Center, Torrance, Calif.).

GH release [3] = experiment: In vivo endocrine activity, GH release after subcutaneous administration (Table 9); conditions: rat; for GH releasing potency relative to JI-38 (=1): subcutaneous (s.c.) injection
Protocol: Subcutaneous Administration. Adult male rats were used and anesthetized with pentobarbital (6 mg/100 g, b.w.), by i.p. injection. […] Blood samples were taken from the jugular vein 5, 15 and/or 30 minutes after the injection. The blood samples were centrifuged, plasma was removed and the GH level was measured byELISA. The results are summarized in terms of potency in Table 9.

Row | Structure (SMILES) | CO (Cardiac Output) [1] | EDP (End-Diastolic Pressure) [1] | EF [1] | ESP (End-Systolic Pressure) [1] | ESV (End-Systolic Volume) [1] | Ea (arterial Elastance) [1] | Ea/Ees [1] | Ees (End-systolic Elastance) [1] | PRSW (Preload Recruitable Stroke Work) [1] | SV (Stroke Volume) [1] | SW (Stroke Work) [1] | TAU (relaxation time constant calculated by Weiss method) [1] | dP/dt max (peak rate of the pressure rise) [1] | dP/dt max_EDV [1] | dP/dt min [1] | Serum GH level at selected time after injection (ng/ml), 0 min (GH release [2]) | Serum GH level at selected time after injection (ng/ml), 15 min (GH release [2]) | Serum GH level at selected time after injection (ng/ml), 30 min (GH release [2]; 30 min) | Relative potency compared to GHRH(1-29), 15 min (GH release [2]) | Relative potency compared to JI-38, 15 min (GH release [2]) | further results
1 | CCCC[C@H](NC(=O)[C@@H](NC(=O)[C@H](CC(=O)O)NC(=O)[C@H](CCC(N)=O)NC(=O)[C@H](CC(C)C)NC(=O)[C@H](CC(C)C)NC(=O)[C@H](CCCN)NC(=O)[C@H](CCCNC(=N)N)NC(=O)[C@H](C)NC(=O)[C@H](CO)NC(=O)[C@H](CC(C)C)NC(=O)[C@H](CCC(N)=O)NC(=O)[C@H](CC)NC(=O)[C@H](CC(C)C)NC(=O)[C@@H](NC(=O)[C@H](CCCN)NC(=O)[C@H](CCCNC(=N)N)NC(=O)[C@H](Cc1ccc(O)cc1)NC(=O)[C@H](CO)NC(=O)[C@H](CC(N)=O)NC(=O)[C@@H](NC(=O)[C@H](Cc1ccccc1)NC(=O)[C@@H](NC(=O)[C@H](C)NC(=O)[C@H](CC(=O)O)NC(=O)[C@@H](C)NC(=O)[C@H](Cc1ccc(O)cc1)NC)[C@@H](C)CC)[C@@H](C)O)C(C)C)[C@@H](C)CC)C(=O)N[C@@H](CC(=O)O)C(=O)NCCCCNC(=N)N [Peptide P-20367, [N—Me-Tyr^1, D-Ala^2, Orn^12, Abu^15, Orn^21, Nle^27, Asp^28, Agm^29]hGHRH(1-29)NH2] (H-[NMeY][dA]DAIFTNSYR[Orn]VL[Abu]QLSAR[Orn]LLQDI[Nle]D-Agmatine) | ↑ | ↑ | = | ↑ | ↑ | = | ↓ | = | = | = | ↓ | = | = | = | = | 41.1 ± 5.6 ng/mL | 244.0 ± 25.1 ng/mL | 141.2 ± 12.3 ng/mL | 68.1 | 1.08 | Relative potency compared to GHRH(1-29), 30 min (GH release [2]; 30 min): 131.7; Relative potency compared to JI-38, 30 min (GH release [2]; 30 min): 1.18; Relative affinity (Binding potency) vs JI-38 (GHRH receptor): 2.56; GH releasing potency relative to JI-38 (=1) (GH release [3]; 15 min after): 1.12; GH releasing potency relative to JI-38 (=1) (GH release [3]; 30 min after): 2.01
2 | CCCC[C@H](NC(=O)[C@@H](NC(=O)[C@H](CC(=O)O)NC(=O)[C@H](CCC(N)=O)NC(=O)[C@H](CC(C)C)NC(=O)[C@H](CC(C)C)NC(=O)[C@H](CCCN)NC(=O)[C@H](CCCNC(=N)N)NC(=O)[C@H](C)NC(=O)[C@H](CO)NC(=O)[C@H](CC(C)C)NC(=O)[C@H](CCC(N)=O)NC(=O)[C@H](CC)NC(=O)[C@H](CC(C)C)NC(=O)[C@@H](NC(=O)[C@H](CCCN)NC(=O)[C@H](CCCNC(=N)N)NC(=O)[C@H](Cc1ccc(O)cc1)NC(=O)[C@H](CO)NC(=O)[C@H](CC(N)=O)NC(=O)[C@@H](NC(=O)[C@H](Cc1ccccc1)NC(=O)[C@@H](NC(=O)[C@H](C)NC(=O)[C@H](CC(=O)O)NC(=O)[C@@H](C)NC(=O)[C@H](Cc1ccc(O)cc1)NC)[C@@H](C)CC)[C@@H](C)O)C(C)C)[C@@H](C)CC)C(=O)N[C@@H](CC(=O)O)C(=O)N[C@@H](CCCNC(=N)N)C(=O)NC [Peptide P-27409, [N—Me-Tyr^1, D-Ala^2, Orn^12, Abu^15, Orn^21, Nle^27, Asp^28]hGHRH(1-29)NH—CH3] (H-[NMeY][dA]DAIFTNSYR[Orn]VL[Abu]QLSAR[Orn]LLQDI[Nle]DR-NHMe) | ⬆⬆ | ↑ | ⬆⬆ | ↑ | = | = | ↓ | ⬆⬆ | ⬆⬆ | = | = | = | ⬆⬆ | = | = | 18.9 ± 3.1 ng/mL | 427.4 ± 62.4 ng/mL | 256.7 ± 20.7 ng/mL | 141.3 | 2.24* | PRSW, index of contractility ([1]; after MI): markedly increased; GH-releasing potency after s.c. administration (in words) (GH release [2]): significantly higher potencies at 30 minutes than at 15 minutes; Relative potency compared to GHRH(1-29), 30 min (GH release [2]; 30 min): 380.6; Relative affinity (Binding potency) vs JI-38 (GHRH receptor): 4.10; Stimulation of growth hormone levels after subcutaneous administration (in words) (GH release [3]; s.c.): stimulated greater growth hormone levels than hGHRH or JI-38; GH releasing potency relative to JI-38 (=1) (GH release [3]; 15 min after): 1.47; GH releasing potency relative to JI-38 (=1) (GH release [3]; 30 min after): 1.31
